Data taken from US20100210682A1, “Repeated Dosing of TRPV1 Antagonists” (ABBOTT LABORATORIES, priority 2009, published 2010).

Tests used:
[1] = test system: bone cancer pain, C3H/HeJ mice; experiment: Bone cancer pain model in mice (2472 sarcoma); assay type: in vivo; details: mouse
Procedure: Male Sprague-Dawley rats (Charles River, Wilmington, Mass.) weighing 200-300 grams were utilized in most experiments. Animals were group housed in AAALAC approved facilities at Abbott Laboratories in a temperature-regulated environment with lights on between 0700 and 2000 h. Food and water were available ad libitum except during testing. All animal handling and experimental protocols were approved by an Institutional Animal Care and Use Committee (IACUC). All experiments were performed during the light cycle. The bone cancer pain experiments were performed on adult male C3H/HeJ mice (Jackson Laboratories, Bar Harbor, Me.), approximately 7-8 weeks old, weighing 25-30 g at the time of tumor cell injection. The mice were housed in accordance with National Institutes of Health Guidelines and kept in a vivarium maintained at 22° C. with a 12 h alternating light-dark cycle. They were given food and water ad libitum except during testing. All procedures were approved by the Institutional Animal Care and Use Committee at the University of Minnesota. All procedures also adhered to the guidelines of the Committee for Research and Ethical Issues of IASP published in PAIN, 16 (1983) 109-110.
An arthrotomy was performed following induction of general anesthesia with sodium pentobarbital (50 mg/kg, intraperitoneal (i.p.)). A needle was inserted into the intramedullary canal to create a pathway for the sarcoma cells. A depression was then made using a pneumatic dental high-speed hand-piece. Mice were injected with Hanks-buffered saline (HBSS) (20 μL, Sigma, St. Louis, Mo.) or HBSS containing the 2472 sarcoma line (ATCC, Rockville, Md., USA). The injection site was sealed with a dental amalgam plug to confine the cells within the intramedullary canal followed by irrigation with sterile water. […] Clips were removed at day 5 so as not to interfere with behavioral testing.
A variety of behavioral measurements was used to assess the extent of bone cancer pain as described previously [Schwei M J, Honore P, Rogers S D, Salak-Johnson J L, Finke M P, Ramnaraine M L, et al. Neurochemical and cellular reorganization of the spinal cord in a murine model of bone cancer pain. J Neurosci 1999; 19:10886-97]. All mice were tested and values obtained for behavioral responses before compound or vehicle administration, and then retested 1 hour following oral dosing. Percent effects were calculated as follows: (1−((Compound Value−Sham Value)/(Vehicle Value−Sham Value)))×100. The number of spontaneous guarding behaviors, representative of nociceptive behavior, was recorded during a 2 min observation period. Guarding was defined as the amount of time an animal held the hind paw aloft while not ambulatory. Mechanical allodynia at the knee joint was evaluated by normally non-noxious palpation of the distal femur every second for 2 min. Following the 2 min palpation, the mice were placed in the observation box and their palpation-induced guarding behavior was measured for an additional 2 min. Normal limb use during spontaneous ambulation in an open field was scored on a scale of 5-0: (5) normal use, (4) some limping, but not pronounced, (3) pronounced limp, (2) limp and guarding behavior, (1) partial non-use of limb, and (0) complete lack of limb use.
Compound A was dissolved in 100% polyethylene glycol (PEG 400) for oral administration in a 2 mL/kg injection volume. Compounds B, C, and D were dissolved in 10% ethanol, 20% Tween 80 and 70% polyethylene glycol-400 for oral administration in a 2 mL/kg injection volume. All compounds were dosed orally (p.o.) 60 minutes before behavioral testing.

[2] = test system: capsaicin-induced flinching behaviors; experiment: Capsaicin-induced acute pain (flinching) in rats; assay type: in vivo; details: rat, acute dosing, 2.5 μg capsaicin into hind paw
Procedure: Rats were placed in individual observation cages. Following an acclimation period of 30 min, the test compound was administered. Two hours later, 2.5 μg of capsaicin in a 10 μL solution of 10% ethanol/90% hydroxypropyl-b-cyclodextrin was injected subcutaneously into the dorsal aspect of the right hind paw. The observation cage was then suspended above mirrors in order to facilitate observation of the rat. […] The number of flinching behaviors of the injured paw was recorded during the 5 minutes observation period. Compound A was dissolved in 100% polyethylene glycol (PEG 400) for oral administration in a 2 mL/kg injection volume. Compounds B, C, and D were dissolved in 10% ethanol, 20% Tween 80 and 70% polyethylene glycol-400 for oral administration in a 2 mL/kg injection volume. All compounds were dosed orally (p.o.) 60 minutes before behavioral testing.

[3] = 30 μmol/kg p.o., acute dosing, fifteen days following tumor cells inoculation

CC(C)(C)c1ccc2c(c1)CC[C@H]2NC(=O)Nc1cccc2[nH]ncc12 [Compound A, N-[(1R)-5-tert-butyl-2,3-dihydro-1H-inden-1-yl]-N′-1H-indazol-4-ylurea]
reversal of spontaneous guarding ([1]; 10 μmol/kg p.o. twice-daily for 9 days): 45±3% | reversal of evoked pain induced by palpation of the cancerous limb (% effects) ([1]; 30 μmol/kg p.o., acute dosing): 65±4% | reversal of spontaneous guarding [1, 3]: 70±1% | reversal of the pain-induced decrease in ambulation [1, 3]: 85±15% | evoked pain induced by palpation of the cancerous limb, repeated vs single dosing ([1]; repeated dosing): Improved analgesic efficacy | effect on spontaneous ambulation ([1]; repeated dosing (10 μmol/kg p.o. twice-daily for 9 days)): 43±0% | analgesic effect on spontaneous ambulation ([1]; single dose 10 μmol/kg p.o.): 19±0% | analgesic effect on spontaneous guarding ([1]; single dose 10 μmol/kg p.o.): 18±6% | capsaicin-induced flinching behaviors [2]: dose-dependently prevented
